Experimental data reported in patent US12731806B2, “Electrolyte regeneration for organic redox flow batteries based on water-soluble phenazine-based compounds” (CMBLU Energy AG, priority 2020, dated 2026).
Values after ≈ are worked out from the molar mass of the structure shown.

Assays:
[1] = physchem; settings: aqueous buffer
[2] = Solubility of DHPS and its degradation species

| Compound | solubility [1] | solubility in a DHPS solution ([2]; DHPS solution up to 0.5 M) | solubility ([2]; aqueous buffer) |
| --- | --- | --- | --- |
| Oc1cc2nc3ccccc3nc2cc1O [DHP, Dihydroxyphenazine] | 200 to 400 mM (≈ 42.4 to 84.9 mg/mL) |  |  |
| O=S(=O)(O)c1ccc2nc3cc(O)c(O)cc3nc2c1 [DHPS, 7,8-Dihydroxyphenazinesulfonic acid] | 1400 to 1600 mM (≈ 409 to 468 mg/mL) |  |  |
| Oc1ccc2nc3ccccc3nc2c1 [MHP, Monohydroxyphenazine] |  | does not change significantly | 100 to 300 mM (≈ 19.6 to 58.9 mg/mL) |
